Here are results for 22 compounds from US12595230B2, “Substituted 6,7-dihydro-5H-benzo[7]annulene compounds and their derivatives, processes for their preparation and therapeutic uses thereof” (Sanofi, priority 2020, dated 2026).

Molecules are shown by their SMILES.

The target of the test is T1, ERα (Homo sapiens, UniProt P03372).
T1 construct: host or cells: MCF7
T1 sequence (P03372 1-595): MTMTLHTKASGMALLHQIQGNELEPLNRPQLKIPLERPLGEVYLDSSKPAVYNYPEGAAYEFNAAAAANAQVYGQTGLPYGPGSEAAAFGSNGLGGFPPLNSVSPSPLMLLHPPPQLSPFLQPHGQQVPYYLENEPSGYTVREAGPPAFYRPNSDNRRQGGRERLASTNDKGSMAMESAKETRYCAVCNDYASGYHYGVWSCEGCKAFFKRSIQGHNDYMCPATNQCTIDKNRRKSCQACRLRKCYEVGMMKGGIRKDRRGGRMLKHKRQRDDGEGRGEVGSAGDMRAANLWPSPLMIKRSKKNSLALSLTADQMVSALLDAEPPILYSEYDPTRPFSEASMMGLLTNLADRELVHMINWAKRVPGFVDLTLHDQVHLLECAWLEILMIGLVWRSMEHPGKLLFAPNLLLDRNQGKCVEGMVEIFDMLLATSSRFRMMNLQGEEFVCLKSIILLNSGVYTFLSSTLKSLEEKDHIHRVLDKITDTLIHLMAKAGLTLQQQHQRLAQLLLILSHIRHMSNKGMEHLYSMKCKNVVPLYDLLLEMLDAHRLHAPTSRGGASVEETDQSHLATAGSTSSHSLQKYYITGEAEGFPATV
The experiment in a line: Estrogen receptor degradation activity: breast cancer cell ERα in cell western assay (MCF7 cells). It counts as cell-based. The following applies: for % Degradation At 0.3 μM: 4 hours, relative to fulvestrant 0.1 μM positive control; for DC50: 4 hours post compound addition, concentration which degrades 50% of the estrogen receptor, read-out: Degradation IC50. In short, it runs like this: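 Compounds were applied to MCF7 cells in stripped-serum, phenol red-free medium for 4 h at final 0.3–0.0000018 μM, with fulvestrant (0.1 μM) as control. Value: IC50 (nM) for 50% ERα degradation.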

With `O=C(O)c1ccc2c(c1)CCCC(c1cc(F)c(F)c(F)c1)=C2c1ccc(CC2CN(CCCF)C2)cc1` [Example 267, 9-(4-((1-(3-fluoropropyl)azetidin-3-yl)methyl)phenyl)-8-(3,4,5-trifluorophenyl)-6,7-dihydro-5H-benzo[7]annulene-3-carboxylic acid], the “% Degradation At 0.3 μM” value is reported as 89% and the DC50 was found to be 0.8 nM.

Turning to `O=C(O)c1ccc2c(c1)CCCC(c1ccc(F)cc1C(F)(F)F)=C2c1ccc(CC2CN(CCCF)C2)cc1` [Example 26, 8-(4-fluoro-2-(trifluoromethyl)phenyl)-9-(4-((1-(3-fluoropropyl)azetidin-3-yl)methyl)phenyl)-6,7-dihydro-5H-benzo[7]annulene-3-carboxylic acid], the “% Degradation At 0.3 μM” value was found to be 92% and the DC50 worked out at 0.3 nM.

Regarding `Cl.O=C(O)c1ccc2c(c1)CCCC(C1CCCC1)=C2c1ccc(CC2CN(CCCF)C2)cc1` [Example 6, 8-cyclopentyl-9-(4-((1-(3-fluoropropyl)azetidin-3-yl)methyl)phenyl)-6,7-dihydro-5H-benzo[7]annulene-3-carboxylic acid], the “% Degradation At 0.3 μM” value is listed as 82% and the DC50 is 0.8 nM.

`O=C(O)c1ccc2c(c1)CCCC(c1ccc(F)cc1C(F)(F)F)=C2c1ccc(CC2CN(CCC(F)(F)F)C2)cc1` [Example 258, 8-(4-fluoro-2-(trifluoromethyl)phenyl)-9-(4-((1-(3,3,3-trifluoropropyl)azetidin-3-yl)methyl)phenyl)-6,7-dihydro-5H-benzo[7]annulene-3-carboxylic acid]: the “% Degradation At 0.3 μM” value is listed as 87% and the DC50 was determined as 0.8 nM.

For the compound `Cl.O=C(O)c1ccc2c(c1)CCCC(c1ccc(Cl)cc1F)=C2c1ccc(CC2CN(CCCF)C2)cc1` [Example 12, 8-(4-chloro-2-fluorophenyl)-9-(4-((1-(3-fluoropropyl)azetidin-3-yl)methyl)phenyl)-6,7-dihydro-5H-benzo[7]annulene-3-carboxylic acid], the “% Degradation At 0.3 μM” value was 93% and the DC50 stood at 0.4 nM.

Regarding `Cc1ccc(C2=C(c3ccc(CC4CN(CCCF)C4)cc3)c3ccc(C(=O)O)cc3CCC2)c(C)c1.Cl` [Example 10, 8-(2,4-dimethylphenyl)-9-(4-((1-(3-fluoropropyl)azetidin-3-yl)methyl)phenyl)-6,7-dihydro-5H-benzo[7]annulene-3-carboxylic acid], the “% Degradation At 0.3 μM” value was 92% and the DC50 was 0.3 nM.

For `O=C(O)c1ccc2c(c1)CCCC(c1ccc(Cl)cc1Cl)=C2c1ccc(CC2CN(CCCF)C2)cn1` [Example 253, 8-(2,4-dichlorophenyl)-9-(5-((1-(3-fluoropropyl)azetidin-3-yl)methyl)pyridin-2-yl)-6,7-dihydro-5H-benzo[7]annulene-3-carboxylic Acid], the “% Degradation At 0.3 μM” value was determined as 89% and the DC50 stood at 4 nM.

In the case of `O=C([O-])c1ccc2c(c1)CCCC(c1cc(F)cc(C(F)F)c1)=C2c1ccc(CC2CN(CCCF)C2)cc1.[Na+]` [Example 251, sodium 8-(3-(difluoromethyl)-5-fluorophenyl)-9-(4-((1-(3-fluoropropyl)azetidin-3-yl)methyl)phenyl)-6,7-dihydro-5H-benzo[7]annulene-3-carboxylate], the “% Degradation At 0.3 μM” value was determined as 87% and the DC50 came to 0.7 nM.

As to `O=C(O)c1ccc2c(c1)CCCC(c1ccccc1Cl)=C2c1ccc(CC2CN(CCCF)C2)cc1` [Example 3, 8-(2-chlorophenyl)-9-(4-((1-(3-fluoropropyl)azetidin-3-yl)methyl)phenyl)-6,7-dihydro-5H-benzo[7]annulene-3-carboxylic acid], the “% Degradation At 0.3 μM” value stood at 89% and the DC50 was 0.3 nM.

For the compound `O=C(O)c1ccc2c(c1)CCCC(c1ccc(Cl)cc1Cl)=C2c1ccc(CC2CN(CCC(F)F)C2)cc1` [Example 223, 8-(2,4-dichlorophenyl)-9-(4-((1-(3,3-difluoropropyl)azetidin-3-yl)methyl)phenyl)-6,7-dihydro-5H-benzo[7]annulene-3-carboxylic acid], the “% Degradation At 0.3 μM” value is 92% and the DC50 worked out at 0.2 nM.

Take `C[C@H]1CC[C@H](C2=C(c3ccc(CC4CN(CCCF)C4)cc3)c3ccc(C(=O)O)cc3CCC2)CC1` [Example 15, 9-(4-((1-(3-fluoropropyl)azetidin-3-yl)methyl)phenyl)-8-((1r,4r)-4-methylcyclohexyl)-6,7-dihydro-5H-benzo[7]annulene-3-carboxylic acid]: the “% Degradation At 0.3 μM” value was 86% and the DC50 amounted to 4 nM.

For `O=C(O)c1ccc2c(c1)CCCC(c1ccc(F)c(F)c1)=C2c1ccc(CC2CN(CCCF)C2)cc1` [Example 45, 8-(3,4-difluorophenyl)-9-(4-((1-(3-fluoropropyl)azetidin-3-yl)methyl)phenyl)-6,7-dihydro-5H-benzo[7]annulene-3-carboxylic acid], the “% Degradation At 0.3 μM” value came to 86% and the DC50 stood at 0.3 nM.

On to `Cl.O=C(O)c1ccc2c(c1)CCCC(c1ccccc1)=C2c1ccc(CC2CN(CCCF)C2)cc1` [Example 1, 9-(4-((1-(3-Fluoropropyl)azetidin-3-yl)methyl)phenyl)-8-phenyl-6,7-dihydro-5H-benzo[7]annulene-3-carboxylic Acid Hydrochloride], for which the “% Degradation At 0.3 μM” value turned out to be 83% and the DC50 is 0.4 nM.

With `O=C(O)c1ccc2c(c1)CCCC(c1ccc(Cl)cc1C(F)F)=C2c1ccc(CC2CN(CCCF)C2)cc1` [Example 221, 8-(4-chloro-2-(difluoromethyl)phenyl)-9-(4-((1-(3-fluoropropyl)azetidin-3-yl)methyl)phenyl)-6,7-dihydro-5H-benzo[7]annulene-3-carboxylic acid], the “% Degradation At 0.3 μM” value amounted to 91% and the DC50 was 0.2 nM.

Turning to `Cc1cc(CC2CN(CCCF)C2)ccc1C1=C(c2ccc(Cl)cc2Cl)CCCc2cc(C(=O)O)ccc21` [Example 240, 8-(2,4-dichlorophenyl)-9-(4-((1-(3-fluoropropyl)azetidin-3-yl)methyl)-2-methylphenyl)-6,7-dihydro-5H-benzo[7]annulene-3-carboxylic acid], the “% Degradation At 0.3 μM” value came to 85% and the DC50 was found to be 0.5 nM.

In the case of `Cc1cc(C2=C(c3ccc(CC4CN(CCCF)C4)cc3)c3ccc(C(=O)O)cc3CCC2)cn(C)c1=O` [Example 209, 8-(1,5-dimethyl-6-oxo-1,6-dihydropyridin-3-yl)-9-(4-((1-(3-fluoropropyl)azetidin-3-yl)methyl)phenyl)-6,7-dihydro-5H-benzo[7]annulene-3-carboxylic acid], the “% Degradation At 0.3 μM” value is 100% and the DC50 is 88.7 nM.

Consider `O=C(O)c1ccc2c(c1)CCCC(c1cccc(CC(F)(F)F)c1)=C2c1ccc(CC2CN(CCCF)C2)cc1` [Example 298, 9-(4-((1-(3-fluoropropyl)azetidin-3-yl)methyl)phenyl)-8-(3-(2,2,2-trifluoroethyl)phenyl)-6,7-dihydro-5H-benzo[7]annulene-3-carboxylic acid], for which the “% Degradation At 0.3 μM” value is 82% and the DC50 came out at 0.5 nM.

On to `Cl.O=C(O)c1ccc2c(c1)CCCC(c1cccc(F)c1Cl)=C2c1ccc(CC2CN(CCCF)C2)cc1` [Example 9, 8-(2-chloro-3-fluorophenyl)-9-(4-((1-(3-fluoropropyl)azetidin-3-yl)methyl)phenyl)-6,7-dihydro-5H-benzo[7]annulene-3-carboxylic acid], for which the “% Degradation At 0.3 μM” value turned out to be 92% and the DC50 is 0.3 nM.

Take `CCC1CCc2cc(C(=O)O)ccc2C(c2ccc(CC3CN(CCCF)C3)cc2)=C1c1ccc(Cl)cc1` (racemic) [Example 315, 8-(4-chlorophenyl)-7-ethyl-9-(4-((1-(3-fluoropropyl)azetidin-3-yl)methyl)phenyl)-6,7-dihydro-5H-benzo[7]annulene-3-carboxylic acid]: the “% Degradation At 0.3 μM” value is on record as 87% and the DC50 amounted to 1 nM.

Consider `COc1c(C(=O)O)ccc2c1CCCC(c1ccc(F)cc1C(F)(F)F)=C2c1ccc(CC2CN(CCCF)C2)cc1.Cl` [Example 283, 8-(4-fluoro-2-(trifluoromethyl)phenyl)-9-(4-((1-(3-fluoropropyl)azetidin-3-yl)methyl)phenyl)-4-methoxy-6,7-dihydro-5H-benzo[7]annulene-3-carboxylic acid hydrochloride], for which the “% Degradation At 0.3 μM” value was 90% and the DC50 was 93.3 nM.

With `Cc1cccc(C2=C(c3ccc(CC4CN(CCCF)C4)cc3)c3ccc(C(=O)O)cc3CCC2)c1Cl` [Example 30, 8-(2-chloro-3-methylphenyl)-9-(4-((1-(3-fluoropropyl)azetidin-3-yl)methyl)phenyl)-6,7-dihydro-5H-benzo[7]annulene-3-carboxylic acid], the “% Degradation At 0.3 μM” value is on record as 94% and the DC50 is 0.4 nM.

As for `COc1ncc(C2=C(c3ccc(CC4CN(CCCF)C4)cc3)c3ccc(C(=O)O)cc3CCC2)cc1C(F)(F)F` [Example 306, 9-(4-((1-(3-fluoropropyl)azetidin-3-yl)methyl)phenyl)-8-(6-methoxy-5-(trifluoromethyl)pyridin-3-yl)-6,7-dihydro-5H-benzo[7]annulene-3-carboxylic acid], the “% Degradation At 0.3 μM” value is recorded as 82% and the DC50 came out at 25.8 nM.
